Reference: patent US20120094897A1, “NOVEL INHIBITORS OF HEPATITIS C VIRUS REPLICATION” (InterMune, Inc., priority 2010, published 2012)

Key:
[1] = test system: HCV sub-genomic replicon (I377/NS3-3′) in HuH-7 hepatoma cells (GS4.3); experiment: Quantitation by ELISA of NPTII in the HCV sub-genomic replicon, GS4.3; assay type: cell-based; settings: Hepatitis C virus, GS4.3 replicon cells, 72 h incubation
Description: The HCV sub-genomic replicon (I377/NS3-3′, accession No. AJ242652), stably maintained in HuH-7 hepatoma cells, was created by Lohmann et al. Science 285: 110-113 (1999). The replicon-containing cell culture, designated GS4.3, was obtained from Dr. Christoph Seeger of the Institute for Cancer Research, Fox Chase Cancer Center, Philadelphia, Pa.
GS4.3 cells were maintained at 37° C., 5% CO2, in DMEM (Gibco 11965-092) supplemented with L-glutamine 200 mM (100×) (Gibco25030-081), non-essential amino acids (NEAA)(Biowhittaker 13-114E), heat-inactivated (HI) Fetal Bovine Serum(FBS)(Hyclone SH3007.03) and […] geneticin (G418)(Gibco 10131-035). Cells were sub-divided 1:3 or 4 every 2-3 days.
24 h prior to the assay, GS4.3 cells were collected, counted, and plated in 96-well plates (Costar 3585) at 7500 cells/well in 100 μL standard maintenance medium (above) and incubated in the conditions above. To initiate the assay, culture medium was removed, cells were washed once with PBS (Gibco 10010-023) and 90 μl Assay Medium (DMEM, L-glutamine, NEAA, 10% HI FBS, no G418) was added. Inhibitors were made as a 10× stock in Assay Medium, (3-fold dilutions from 10 μM to […] final concentration, final DMSO concentration 1%), 10 μL were added to duplicate wells, plates were rocked to mix, and incubated as above for 72 h.
An NPTII Elisa kit was obtained from AGDIA, Inc. (Compound direct ELISA test system for Neomycin Phosphotransferase II, PSP 73000/4800). Manufacturer's instructions were followed, with some modifications. 10×PEB-1 lysis buffer was made up to include 500 μM PMSF (Sigma P7626, 50 mM stock in isopropanol). After 72 h incubation, cells were washed once with PBS and 150 μL PEB-1 with PMSF was added per well. Plates were agitated vigorously for 15 minutes, room temperature, and then frozen at −70° C. Plates were thawed, lysates were mixed thoroughly, and 100 μL were applied to an NPTII Elisa plate. A standard curve was made. Lysate from DMSO-treated control cells was pooled, serially diluted with PEB-1 with PMSF, and applied to duplicate wells of the ELISA plate, in a range of initial lysate amount of 150 μL. In addition, 100 μL buffer alone was applied in duplicate as a blank. Plates were sealed and gently agitated at room temperature for 2 h. Following capture incubation, the plates were washed 5×300 μL with PBS-T (0.5% Tween-20, PBS-T was supplied in the ELISA kit). For detection, a 1× dilution of enzyme conjugate diluent MRS-2 (5×) was made in PBS-T, into which 1:100 dilutions of enzyme conjugates A and B were added, as per instructions. Plates were resealed, and incubated with agitation, covered, room temperature, for 2 h. The washing was then repeated and 100 μL of room temperature TMB substrate was added. After approximately 30 minutes incubation (room temperature, agitation, covered), the reaction was stopped with 50 μL 3M sulfuric acid. Plates were read at 450 nm on a Molecular Devices Versamax plate reader.
Inhibitor effect was expressed as a percentage of DMSO-treated control signal, and inhibition curves were calculated using a 4-parameter equation: y=A+4B−A)/(1+((C/x)̂D))), where C is half-maximal activity or EC50.

[2] = biological target: T1, HCV NS3 protease (full-length NS3/NS4A-2 complex) (Hepatitis C virus genotype 1a, UniProt P27958); experiment: NS3 Inhibition Assay (NS3-NS4 protease assay, RETS1 substrate); assay type: biochemical; settings: NS3/NS4A-2, RETS1 substrate, 10 minutes pre-incubation
T1 construct: Recombinant E. coli or Baculovirus full-length NS3 was diluted to 3.33 μM with assay buffer; host or cells: E. coli or baculovirus (insect cells)
Description: NS3 Complex Formation with NS4A-2.
Recombinant E. coli or Baculovirus full-length NS3 was diluted to 3.33 μM with assay buffer and the material was transferred to an eppendorf tube and placed in a water bath in a 4° C. refrigerator. The appropriate amount of NS4A-2 diluted to 8.3 mM in assay buffer was added to an equal the volume of NS3 above (conversion factor—3.8 mg/272 μL assay buffer). The material was transferred to an eppendorf tube and placed in water bath in a 4° C. refrigerator.
After equilibration to 4° C., equal volumes of NS3 and NS4A-2 solutions were combined in an eppendorf tube, mixed gently with a manual pipettor, and incubated for 15 minutes in the 4° C. water bath. Final concentrations in the mixture are 1.67 μM NS3, 4.15 mM NS4A-2 (2485-fold molar excess NS4A-2).
After 15 minutes at 4° C., the NS3/NS4A-2 eppendorf tube was removed and placed in a room temperature water bath for 10 minutes. NS3/NS4A-2 was aliquoted at appropriate volumes and stored at −80° C. (E. coli NS3 run at 2 nM in assay, aliquot at 25 μL. BV NS3 run at 3 nM in assay, aliquot at 30 μL).
Step a. Sample compounds were dissolved to 10 mM in DMSO then diluted to 2.5 mM (1:4) in DMSO. Typically, compounds were added to an assay plate at 2.5 mM concentration, yielding upon dilution a starting concentration of 50 μM in the assay inhibition curve. Compounds were serial diluted in assay buffer to provide test solutions at lower concentrations.
Step 1. The E. coli. NS3/NS4A-2 was diluted to 4 nM NS3 (1:417.5 of 1.67 μM stock−18 μL 1.67 μM stock+7497 μL assay buffer). The BV NS3/NS4A-2 was diluted to 6 nM NS3 (1:278.3 of 1.67 μM stock−24 μL 1.67 μM stock+6655 μL assay buffer).
Step. 2. Using the manual multichannel pipettor, and being careful not to introduce bubbles into the plate, 50 μL assay buffer was added to wells A01-H01 of a black Costar 96-well polypropylene storage plate.
Step 3. Using the manual multichannel pipettor, and being careful not to introduce bubbles into the plate, 50 μL of diluted NS3/NS4A-2 from step 1 was added to wells A02-H12 of the plate in step 2.
Step 4. Using the manual multichannel pipettor, and being careful not to introduce bubbles into the plate, 25 μL of the wells in drug dilution plate in step a was transferred to corresponding wells in assay plate in step 3. The tips on the multichannel pipettor were changed for each row of compounds transferred.
Step 5. Using the manual multichannel pipettor, and being careful not to introduce bubbles into the plate, the contents of the wells from the assay plate in step 4 were mixed by aspirating and dispensing 35 μL of the 75 μL in each well five times. The tips on multichannel pipettor were changed for each row of wells mixed.
Step 6. The plate was covered with a polystyrene plate lid, and the plate from step 5 containing NS3 protease and sample compounds was pre-incubated 10 minutes at room temperature.
While the plate from step 6 is pre-incubating, the RETS1 substrate was diluted in a 15 mL polypropylene centrifuge tube. The RETS1 substrate was diluted to 8 μM (1:80.75 of 646 μM stock−65 μL 646 μM stock+5184 μL assay buffer).
After the plate in step 6 finished pre-incubating, and using the manual multichannel, 25 μL of substrate was added to all wells on the plate. The contents of the wells of the plate were quickly mixed, as in step 5, mixing 65 μL of the 100 μL in the wells.
The plate was read in kinetic mode on the Molecular Devices SpectraMax Gemini XS plate reader. Reader settings: Read time: 30 minutes, Interval: 36 seconds, Reads: 51, Excitation λ: 335 nm, Emission λ: 495 nm, cutoff: 475 nm, Automix: off, Calibrate: once, PMT: high, Reads/well: 6, Vmax pts: 21 or 28/51 depending on length of linearity of reaction
IC50s are determined using a four parameter curve fit equation, and converted to Ki's using the following Km's: • Full-length E. coli NS3-2.03 μM • Full-length BV NS3-1.74 μM • where Ki=IC50/(1+[S]/Km))

T1 sequence (P27958 1027-1657, one chain of several): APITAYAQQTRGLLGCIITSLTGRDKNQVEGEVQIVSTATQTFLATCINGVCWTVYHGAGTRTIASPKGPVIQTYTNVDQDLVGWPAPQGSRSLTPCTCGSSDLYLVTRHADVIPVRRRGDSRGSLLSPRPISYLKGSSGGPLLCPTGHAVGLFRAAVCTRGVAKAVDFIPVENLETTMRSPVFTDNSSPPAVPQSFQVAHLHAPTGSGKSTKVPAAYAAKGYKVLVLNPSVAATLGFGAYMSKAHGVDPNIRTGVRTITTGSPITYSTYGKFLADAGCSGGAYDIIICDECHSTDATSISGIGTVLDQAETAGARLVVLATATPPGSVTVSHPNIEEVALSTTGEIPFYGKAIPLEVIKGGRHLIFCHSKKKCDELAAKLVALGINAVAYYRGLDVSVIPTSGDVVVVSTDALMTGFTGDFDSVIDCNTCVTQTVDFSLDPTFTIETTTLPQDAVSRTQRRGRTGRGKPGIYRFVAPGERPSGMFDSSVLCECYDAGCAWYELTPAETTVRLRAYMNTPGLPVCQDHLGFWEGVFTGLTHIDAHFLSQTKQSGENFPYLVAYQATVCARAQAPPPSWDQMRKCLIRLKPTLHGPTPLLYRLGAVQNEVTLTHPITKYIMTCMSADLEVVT

| SMILES | EC50 [1] [nM] | IC50 [2] [nM] |
| --- | --- | --- |
| CC[C@@H]1C[C@@]12NC(=O)[C@@H]1C[C@H](CN1C(=O)[C@@H](NC(=O)OC(C)(C)C)C(C)(C)C)Oc1nc3c(cccc3n1C(C)C)C(=O)NCC=CCCCC1(CC1)S(=O)(=O)NC2=O [Compound 9] | 10 to 100 | ≤ 10 |
| CC[C@@H]1C[C@@]12NC(=O)[C@@H]1C[C@H](CN1C(=O)[C@@H](NC(=O)OC(C)(C)C)C(C)(C)C)Oc1nc3c(cccc3n1C(C)C)C(=O)NCCC=CCCC1(CC1)S(=O)(=O)NC2=O [Compound 10] | ≥ 100 | ≤ 10 |
| CC[C@@H]1C[C@@]12NC(=O)[C@@H]1C[C@H](CN1C(=O)[C@@H](NC(=O)OC(C)(C)C)C(C)(C)C)Oc1nc3c(cccc3n1C(C)C)C(=O)NCCCCCCC1(CC1)S(=O)(=O)NC2=O [Compound 11] | ≥ 100 | ≤ 10 |
| CC[C@@H]1C[C@@]12NC(=O)[C@@H]1C[C@H](CN1C(=O)[C@@H](NC(=O)OC(C)(C)C)C(C)(C)C)Oc1nc3c(cccc3n1C(C)C)C(=O)NCCC=CCCCC1(CC1)S(=O)(=O)NC2=O [Compound 12] | 10 to 100 | ≤ 10 |
| CC[C@@H]1C[C@@]12NC(=O)[C@@H]1C[C@H](CN1C(=O)[C@@H](NC(=O)OC(C)(C)C)C(C)(C)C)Oc1nc3c(cccc3n1C(C)C)C1=NC(C(C)C)=C(CCC=CCCC3(CC3)S(=O)(=O)NC2=O)S1 [Compound 13] | ≥ 100 | ≤ 10 |
| CC[C@@H]1C[C@@]12NC(=O)[C@@H]1C[C@H](CN1C(=O)[C@@H](NC(=O)OC(C)(C)C)C(C)(C)C)Oc1nc3c(cccc3n1C(C)C)C(=O)NCCCCCCCC1(CC1)S(=O)(=O)NC2=O [Compound 14] | ≤ 10 | ≤ 10 |
| CC[C@@H]1C[C@@]12NC(=O)[C@@H]1C[C@H](CN1C(=O)[C@@H](NC(=O)OC(C)(C)C)C(C)(C)C)Oc1nc3c(cccc3n1C(C)C)C1=NC(C(C)C)=C(CCCCCCC3(CC3)S(=O)(=O)NC2=O)S1 [Compound 15] | ≥ 100 | ≤ 10 |
| CC[C@@H]1C[C@@]12NC(=O)[C@@H]1C[C@H](CN1C(=O)[C@@H](NC(=O)OC(C)(C)C)C(C)(C)C)Oc1nc3c(cccc3n1C(C)C)C1=NC(C(C)C)=C(CCC/C=C/CCCC3(CC3)S(=O)(=O)NC2=O)S1 [Compound 101] | ≥ 100 | ≤ 10 |
| CC[C@@H]1C[C@@]12NC(=O)[C@@H]1C[C@H](CN1C(=O)[C@@H](NC(=O)OC(C)(C)C)C(C)(C)C)Oc1nc3c(cccc3n1C(C)C)C1=NC(C(C)C)=C(CCCCCCCCC3(CC3)S(=O)(=O)NC2=O)S1 [Compound 102] | ≥ 100 | 10 to 100 |
| CC[C@@H]1C[C@@]12NC(=O)[C@@H]1C[C@H](CN1C(=O)[C@@H](N)C(C)(C)C)Oc1nc3c(cccc3n1C(C)C)C1=NC(C(C)C)=C(CCC/C=C/CCCC3(CC3)S(=O)(=O)NC2=O)S1 [Compound 103] | ≥ 100 | 10 to 100 |
| CC[C@@H]1C[C@@]12NC(=O)[C@@H]1C[C@H](CN1C(=O)[C@@H](N)C(C)(C)C)Oc1nc3c(cccc3n1C(C)C)C1=NC(C(C)C)=C(CCCCCCCCC3(CC3)S(=O)(=O)NC2=O)S1 [Compound 104] | ≥ 100 | 10 to 100 |
| CC[C@@H]1C[C@@]12NC(=O)[C@@H]1C[C@H](CN1C(=O)[C@@H](NC(=O)OC(C)(C)C)C(C)(C)C)Oc1nc3c(cccc3n1C(C)C)C1=NC(C(C)C)=C(CC/C=C/CCCCS(=O)(=O)NC2=O)S1 [Compound 105] | ≥ 100 | ≤ 10 |
| CC[C@@H]1C[C@@]12NC(=O)[C@@H]1C[C@H](CN1C(=O)[C@@H](NC(=O)OC(C)(C)C)C(C)(C)C)Oc1nc3c(cccc3n1C(C)C)C1=NC(C(C)C)=C(CC/C=C\CCCCS(=O)(=O)NC2=O)S1 [Compound 106] | ≥ 100 | 10 to 100 |
| CC[C@@H]1C[C@@]12NC(=O)[C@@H]1C[C@H](CN1C(=O)[C@@H](NC(=O)OC(C)(C)C)C(C)(C)C)Oc1nc3c(cccc3n1C(C)C)C1=NC(C(C)C)=C(CCCCCCCCS(=O)(=O)NC2=O)S1 [Compound 107] | ≥ 100 | 10 to 100 |
| CC[C@@H]1C[C@@]12NC(=O)[C@@H]1C[C@H](CN1C(=O)[C@@H](N)C(C)(C)C)Oc1nc3c(cccc3n1C(C)C)C1=NC(C(C)C)=C(CC/C=C\CCCCS(=O)(=O)NC2=O)S1 [Compound 108] | ≥ 100 | ≥ 100 |
| CC[C@@H]1C[C@@]12NC(=O)[C@@H]1C[C@H](CN1C(=O)[C@@H](N)C(C)(C)C)Oc1nc3c(cccc3n1C(C)C)C1=NC(C(C)C)=C(CC/C=C/CCCCS(=O)(=O)NC2=O)S1 [Compound 109] | ≥ 100 | ≥ 100 |
| CC[C@@H]1C[C@@]12NC(=O)[C@@H]1C[C@H](CN1C(=O)[C@@H](N)C(C)(C)C)Oc1nc3c(cccc3n1C(C)C)C1=NC(C(C)C)=C(CCCCCCCCS(=O)(=O)NC2=O)S1 [Compound 110] | ≥ 100 | ≥ 100 |
